ChEMBL document CHEMBL4304773, “Nitroimidazole-containing compounds and their antibacterial and antitubercular activities” (2019)
≈ marks a conversion by molar mass, not a printed value.

What was measured:
Type in all cases: functional
[1] = system: Helicobacter pylori; assay: Antibacterial activity against Helicobacter pylori
[2] = system: Helicobacter pylori; assay: Antibacterial activity against Helicobacter pylori NCTC 11637
[3] = system: Pseudomonas aeruginosa; assay: Antibacterial activity against Pseudomonas aeruginosa ATCC 27853
[4] = system: Staphylococcus aureus; assay: Antibacterial activity against Staphylococcus aureus ATCC 25923
[5] = system: Escherichia coli; assay: Antibacterial activity against Escherichia coli ATCC 25922
[6] = system: Staphylococcus aureus; assay: Antibacterial activity against Staphylococcus aureus ATCC 29213
[7] = system: Escherichia coli; assay: Antibacterial activity against Escherichia coli
[8] = system: Enterococcus faecalis; assay: Antibacterial activity against Enterococcus faecalis
[9] = system: Acinetobacter baumannii; assay: Antibacterial activity against Acinetobacter baumannii
[10] = system: Pseudomonas aeruginosa; assay: Antibacterial activity against Pseudomonas aeruginosa
[11] = system: Klebsiella pneumoniae; assay: Antibacterial activity against Klebsiella pneumoniae
[12] = system: Staphylococcus aureus; assay: Antibacterial activity against methicillin-resistant Staphylococcus aureus N315
[13] = system: Streptococcus pyogenes; assay: Antibacterial activity against Streptococcus pyogenes
[14] = system: Staphylococcus aureus; assay: Antibacterial activity against Staphylococcus aureus
[15] = system: Staphylococcus aureus; assay: Antibacterial activity against Staphylococcus aureus ATCC 25923 after 24 hrs by NCCLS method; settings: ATCC 25923, 24 h
[16] = system: Bacillus subtilis; assay: Antibacterial activity against Bacillus subtilis ATCC 530 after 24 hrs by NCCLS method; settings: ATCC 530, 24 h
[17] = system: Escherichia coli; assay: Antibacterial activity against Escherichia coli ATCC 25922 after 24 hrs by NCCLS method; settings: ATCC 25922, 24 h
[18] = system: Pseudomonas aeruginosa; assay: Antibacterial activity against Pseudomonas aeruginosa ATCC 27853 after 24 hrs by NCCLS method; settings: ATCC 27853, 24 h

Cc1nonc1CNCCn1c([N+](=O)[O-])cnc1C
MIC90 [1]: 0.5 to 32 µg/mL (≈ 1.88 to 120 µM) | MIC90 [2]: 0.5 to 32 µg/mL (≈ 1.88 to 120 µM)

CCCCCCCCCCCCN1CCN(c2ccc3c4c(cccc24)C(=O)N(CC(O)Cn2c([N+](=O)[O-])cnc2C)C3=O)CC1 (stereo unspecified)
MIC [3]: 13 to 1020 µM (≈ 8.23 to 645 µg/mL) | MIC [4]: 13 to 1020 µM (≈ 8.23 to 645 µg/mL) | MIC [5]: 13 to 1020 µM (≈ 8.23 to 645 µg/mL) | MIC [6]: 13 to 1020 µM (≈ 8.23 to 645 µg/mL) | MIC [7]: 13 to 1020 µM (≈ 8.23 to 645 µg/mL) | MIC [8]: 13 to 1020 µM (≈ 8.23 to 645 µg/mL) | MIC [9]: 13 to 1020 µM (≈ 8.23 to 645 µg/mL) | MIC [10]: 13 to 1020 µM (≈ 8.23 to 645 µg/mL) | MIC [11]: 13 to 1020 µM (≈ 8.23 to 645 µg/mL) | MIC [12]: 13 to 1020 µM (≈ 8.23 to 645 µg/mL)

CCN1CCN(Cn2nc(Cn3cc([N+](=O)[O-])nc3C)oc2=S)CC1
MIC [13]: 184 to 2890 µM (≈ 67.6 to 1060 µg/mL) | MIC [14]: 184 to 2890 µM (≈ 67.6 to 1060 µg/mL)

Cc1ncc([N+](=O)[O-])n1CC(O)CN1C(=O)c2cccc3c(N4CCN(CC#N)CC4)ccc(c23)C1=O (stereo unspecified)
MIC [3]: 13 to 1020 µM (≈ 6.55 to 514 µg/mL) | MIC [4]: 13 to 1020 µM (≈ 6.55 to 514 µg/mL) | MIC [5]: 13 to 1020 µM (≈ 6.55 to 514 µg/mL) | MIC [6]: 13 to 1020 µM (≈ 6.55 to 514 µg/mL) | MIC [7]: 13 to 1020 µM (≈ 6.55 to 514 µg/mL) | MIC [8]: 13 to 1020 µM (≈ 6.55 to 514 µg/mL) | MIC [9]: 13 to 1020 µM (≈ 6.55 to 514 µg/mL) | MIC [10]: 13 to 1020 µM (≈ 6.55 to 514 µg/mL) | MIC [11]: 13 to 1020 µM (≈ 6.55 to 514 µg/mL) | MIC [12]: 13 to 1020 µM (≈ 6.55 to 514 µg/mL)

Cc1nc([N+](=O)[O-])cn1Cc1nn(CNc2ccc(Cl)cc2)c(=S)o1
MIC [13]: 184 to 2890 µM (≈ 70.1 to 1100 µg/mL) | MIC [14]: 184 to 2890 µM (≈ 70.1 to 1100 µg/mL)

Cc1ncc([N+](=O)[O-])n1CC(O)CN1C(=O)c2cccc3c(N4CCCCC4)ccc(c23)C1=O (stereo unspecified)
MIC [3]: 69 to 1140 µM (≈ 32 to 528 µg/mL) | MIC [4]: 69 to 1140 µM (≈ 32 to 528 µg/mL) | MIC [5]: 69 to 1140 µM (≈ 32 to 528 µg/mL) | MIC [6]: 69 to 1140 µM (≈ 32 to 528 µg/mL) | MIC [7]: 69 to 1140 µM (≈ 32 to 528 µg/mL) | MIC [8]: 69 to 1140 µM (≈ 32 to 528 µg/mL) | MIC [9]: 69 to 1140 µM (≈ 32 to 528 µg/mL) | MIC [10]: 69 to 1140 µM (≈ 32 to 528 µg/mL) | MIC [11]: 69 to 1140 µM (≈ 32 to 528 µg/mL) | MIC [12]: 69 to 1140 µM (≈ 32 to 528 µg/mL)

Cc1ncc([N+](=O)[O-])n1CC(O)CN1C(=O)c2cccc3c(N4CCN(CCO)CC4)ccc(c23)C1=O (stereo unspecified)
MIC [3]: 13 to 1020 µM (≈ 6.61 to 519 µg/mL) | MIC [4]: 13 to 1020 µM (≈ 6.61 to 519 µg/mL) | MIC [5]: 13 to 1020 µM (≈ 6.61 to 519 µg/mL) | MIC [6]: 13 to 1020 µM (≈ 6.61 to 519 µg/mL) | MIC [7]: 13 to 1020 µM (≈ 6.61 to 519 µg/mL) | MIC [8]: 13 to 1020 µM (≈ 6.61 to 519 µg/mL) | MIC [9]: 13 to 1020 µM (≈ 6.61 to 519 µg/mL) | MIC [10]: 13 to 1020 µM (≈ 6.61 to 519 µg/mL) | MIC [11]: 13 to 1020 µM (≈ 6.61 to 519 µg/mL) | MIC [12]: 13 to 1020 µM (≈ 6.61 to 519 µg/mL)

COc1ccc(Oc2c(/C=N/NC(=O)Cn3c([N+](=O)[O-])cnc3C)c(C)nn2-c2ccccc2)cc1
MIC [15]: 3.12 to 50 µg/mL (≈ 6.37 to 102 µM) | MIC [16]: 3.12 to 50 µg/mL (≈ 6.37 to 102 µM) | MIC [17]: 3.12 to 50 µg/mL (≈ 6.37 to 102 µM) | MIC [18]: 3.12 to 50 µg/mL (≈ 6.37 to 102 µM)

Cc1ccc(Oc2c(/C=N/NC(=O)Cn3c([N+](=O)[O-])cnc3C)c(C)nn2-c2ccc(C)cc2)cc1
MIC [15]: 3.12 to 50 µg/mL (≈ 6.4 to 103 µM) | MIC [16]: 3.12 to 50 µg/mL (≈ 6.4 to 103 µM) | MIC [17]: 3.12 to 50 µg/mL (≈ 6.4 to 103 µM) | MIC [18]: 3.12 to 50 µg/mL (≈ 6.4 to 103 µM)

CCCCCCN1CCN(c2ccc3c4c(cccc24)C(=O)N(CC(O)Cn2c([N+](=O)[O-])cnc2C)C3=O)CC1 (stereo unspecified)
MIC [3]: 13 to 1020 µM (≈ 7.13 to 560 µg/mL) | MIC [4]: 13 to 1020 µM (≈ 7.13 to 560 µg/mL) | MIC [5]: 13 to 1020 µM (≈ 7.13 to 560 µg/mL) | MIC [6]: 13 to 1020 µM (≈ 7.13 to 560 µg/mL) | MIC [7]: 13 to 1020 µM (≈ 7.13 to 560 µg/mL) | MIC [8]: 13 to 1020 µM (≈ 7.13 to 560 µg/mL) | MIC [9]: 13 to 1020 µM (≈ 7.13 to 560 µg/mL) | MIC [10]: 13 to 1020 µM (≈ 7.13 to 560 µg/mL) | MIC [11]: 13 to 1020 µM (≈ 7.13 to 560 µg/mL) | MIC [12]: 13 to 1020 µM (≈ 7.13 to 560 µg/mL)

Cc1ncc([N+](=O)[O-])n1CC(O)CN1C(=O)c2cccc3c(N4CCOCC4)ccc(c23)C1=O (stereo unspecified)
MIC [3]: 69 to 1140 µM (≈ 32.1 to 531 µg/mL) | MIC [4]: 69 to 1140 µM (≈ 32.1 to 531 µg/mL) | MIC [5]: 69 to 1140 µM (≈ 32.1 to 531 µg/mL) | MIC [6]: 69 to 1140 µM (≈ 32.1 to 531 µg/mL) | MIC [7]: 69 to 1140 µM (≈ 32.1 to 531 µg/mL) | MIC [8]: 69 to 1140 µM (≈ 32.1 to 531 µg/mL) | MIC [9]: 69 to 1140 µM (≈ 32.1 to 531 µg/mL) | MIC [10]: 69 to 1140 µM (≈ 32.1 to 531 µg/mL) | MIC [11]: 69 to 1140 µM (≈ 32.1 to 531 µg/mL) | MIC [12]: 69 to 1140 µM (≈ 32.1 to 531 µg/mL)

Cc1nc([N+](=O)[O-])cn1Cc1nn(CNc2ccc(Br)cc2)c(=S)o1
MIC [13]: 184 to 2890 µM (≈ 78.2 to 1230 µg/mL) | MIC [14]: 184 to 2890 µM (≈ 78.2 to 1230 µg/mL)
